Test results published in patent publication US20040087633A1, “Methylidene oxazolidinone compound and preparation method thereof” (Korea Institute of Science and Technology, priority 2002, published 2004).
In brackets after ≈: the same amount, converted by molar mass.

Columns and labels:
Assay in all cases: Anti-microbial activity test in vitro (agar dilution MIC)
VRE C6488 = format: cell-based, Enterococcus faecium; conditions: VRE C6488; Agar Dilution method, Mueller Hinton Agar, 18 hours at 37° C.
Outline: (§1)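 Agar dilution on Mueller Hinton agar with twofold serial compound dilutions; strains grown 18 h at 37 °C. MIC (μg/ml) read visually.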

VRE C6487 = format: cell-based, Enterococcus faecium; conditions: VRE C6487; Agar Dilution method, Mueller Hinton Agar, 18 hours at 37° C.
Outline: as §1

CRSA C1062 = format: cell-based, Staphylococcus aureus; conditions: CRSA C1062; Agar Dilution method, Mueller Hinton Agar, 18 hours at 37° C.
Outline: as §1

MRSA C5100 = format: cell-based, Staphylococcus aureus; conditions: MRSA C5100; Agar Dilution method, Mueller Hinton Agar, 18 hours at 37° C.
Outline: as §1

CRSA C6043 = format: cell-based, Staphylococcus aureus; conditions: CRSA C6043; Agar Dilution method, Mueller Hinton Agar, 18 hours at 37° C.
Outline: as §1

MRSA C2207 = format: cell-based, Staphylococcus aureus; conditions: MRSA C2207; Agar Dilution method, Mueller Hinton Agar, 18 hours at 37° C.
Outline: as §1

MSSA C2214 = format: cell-based, Staphylococcus aureus; conditions: MSSA C2214; Agar Dilution method, Mueller Hinton Agar, 18 hours at 37° C.
Outline: as §1

MRSA C6068 = format: cell-based, Staphylococcus aureus; conditions: MRSA C6068; Agar Dilution method, Mueller Hinton Agar, 18 hours at 37° C.
Outline: as §1

MSSA C7142 = format: cell-based, Staphylococcus aureus; conditions: MSSA C7142; Agar Dilution method, Mueller Hinton Agar, 18 hours at 37° C.
Outline: as §1

S. epidermidis C2235 = format: cell-based; conditions: S. epidermidis C2235; Agar Dilution method, Mueller Hinton Agar, 18 hours at 37° C.
Outline: as §1

E. faecalis ATCC29212 = format: cell-based; conditions: E. faecalis ATCC29212; Agar Dilution method, Mueller Hinton Agar, 18 hours at 37° C.
Outline: as §1

S. epidermidis C2230 = format: cell-based; conditions: S. epidermidis C2230; Agar Dilution method, Mueller Hinton Agar, 18 hours at 37° C.
Outline: as §1

E. faecalis C6288 = format: cell-based; conditions: E. faecalis C6288; Agar Dilution method, Mueller Hinton Agar, 18 hours at 37° C.
Outline: as §1

E. faecalis C6291 = format: cell-based; conditions: E. faecalis C6291; Agar Dilution method, Mueller Hinton Agar, 18 hours at 37° C.
Outline: as §1

S. pyogenes C6012 = format: cell-based; conditions: S. pyogenes C6012; Agar Dilution method, Mueller Hinton Agar, 18 hours at 37° C.
Outline: as §1

S. pyogenes ATCC8668 = format: cell-based; conditions: S. pyogenes ATCC8668; Agar Dilution method, Mueller Hinton Agar, 18 hours at 37° C.
Outline: as §1

S. aureus ATCC 29213 = format: cell-based; conditions: Agar Dilution method, Mueller Hinton Agar, 18 hours at 37° C.
Outline: as §1

E. faecium C6301 = format: cell-based; conditions: E. faecium C6301; Agar Dilution method, Mueller Hinton Agar, 18 hours at 37° C.
Outline: as §1

S. epidermidis ATCC12228 = format: cell-based; conditions: S. epidermidis ATCC12228; Agar Dilution method, Mueller Hinton Agar, 18 hours at 37° C.
Outline: as §1

S. pyogenes C6003 = format: cell-based; conditions: S. pyogenes C6003; Agar Dilution method, Mueller Hinton Agar, 18 hours at 37° C.
Outline: as §1

E. faecium C2252 = format: cell-based; conditions: E. faecium C2252; Agar Dilution method, Mueller Hinton Agar, 18 hours at 37° C.
Outline: as §1

Compound | Minimum inhibition concentration (MIC) (VRE C6488) [µg/mL] | Minimum inhibition concentration (MIC) (VRE C6487) [µg/mL] | Minimum inhibition concentration (MIC) (CRSA C1062) [µg/mL] | Minimum inhibition concentration (MIC) (MRSA C5100) [µg/mL] | Minimum inhibition concentration (MIC) (CRSA C6043) [µg/mL] | Minimum inhibition concentration (MIC) (MRSA C2207) [µg/mL] | Minimum inhibition concentration (MIC) (MSSA C2214) [µg/mL] | Minimum inhibition concentration (MIC) (MRSA C6068) [µg/mL] | Minimum inhibition concentration (MIC) (MSSA C7142) [µg/mL] | Minimum inhibition concentration (MIC) (S. epidermidis C2235) [µg/mL] | Minimum inhibition concentration (MIC) (E. faecalis ATCC29212) [µg/mL] | Minimum inhibition concentration (MIC) (S. epidermidis C2230) [µg/mL] | Minimum inhibition concentration (MIC) (E. faecalis C6288) [µg/mL] | Minimum inhibition concentration (MIC) (E. faecalis C6291) [µg/mL] | Minimum inhibition concentration (MIC) (S. pyogenes C6012) [µg/mL] | Minimum inhibition concentration (MIC) (S. pyogenes ATCC8668) [µg/mL] | Minimum inhibition concentration (MIC) (S. aureus ATCC 29213) [µg/mL] | Minimum inhibition concentration (MIC) (E. faecium C6301) [µg/mL] | Minimum inhibition concentration (MIC) (S. epidermidis ATCC12228) [µg/mL] | Minimum inhibition concentration (MIC) (S. pyogenes C6003) [µg/mL] | also measured
CC(=O)NC[C@H]1CN(c2ccc(N3CCC(=CC(C)=NO)CC3)c(F)c2)C(=O)O1 [Compound 20, N-[[(5S)-3-[3-fluoro-4-(4-(2-hydroxyiminopropylidene)-piperidinyl)phenyl]-2-oxo-5-oxazolidinyl]methyl]acetamide] | 4 (≈ 9.89 µM) | 4 (≈ 9.89 µM) | 8 (≈ 19.8 µM) | 8 (≈ 19.8 µM) | 8 (≈ 19.8 µM) | 8 (≈ 19.8 µM) | 8 (≈ 19.8 µM) | 4 (≈ 9.89 µM) | 16 (≈ 39.6 µM) | 4 (≈ 9.89 µM) | 8 (≈ 19.8 µM) | 4 (≈ 9.89 µM) | 4 (≈ 9.89 µM) | 4 (≈ 9.89 µM) | 1 (≈ 2.47 µM) | 1 (≈ 2.47 µM) | 8 (≈ 19.8 µM) | 4 (≈ 9.89 µM) | 1 (≈ 2.47 µM) | 4 (≈ 9.89 µM) | Minimum inhibition concentration (MIC) (E. faecium C2252): 4 µg/mL (≈ 9.89 µM)
CON=C(C)C=C1CCN(c2ccc(N3C[C@H](CNC(C)=O)OC3=O)cc2F)CC1 [Compound 21, N-[[(5S)-3-[3-fluoro-4-(4-(2-methoxyiminopropylidene)-piperidinyl)phenyl]-2-oxo-5-oxazolidinyl]methyl]acetamide] | 4 (≈ 9.56 µM) | 4 (≈ 9.56 µM) | 32 (≈ 76.5 µM) | 8 (≈ 19.1 µM) | 16 (≈ 38.2 µM) | 16 (≈ 38.2 µM) | 16 (≈ 38.2 µM) | 8 (≈ 19.1 µM) | 16 (≈ 38.2 µM) | 8 (≈ 19.1 µM) | 16 (≈ 38.2 µM) | 16 (≈ 38.2 µM) | 8 (≈ 19.1 µM) | 8 (≈ 19.1 µM) | 2 (≈ 4.78 µM) | 2 (≈ 4.78 µM) | 16 (≈ 38.2 µM) | 8 (≈ 19.1 µM) | 2 (≈ 4.78 µM) | 8 (≈ 19.1 µM) | Minimum inhibition concentration (MIC) (E. faecium C2252): 8 µg/mL (≈ 19.1 µM)
CC(=O)NC[C@H]1CN(c2ccc(N3CCC(=CC(C)O)CC3)c(F)c2)C(=O)O1 (stereo partly drawn) [Compound 22, N-[[(5S)-3-[3-fluoro-4-(4-(2-hydroxypropylidene)-piperidinyl)-phenyl]-2-oxo-5-oxazolidinyl]methyl]acetamide] | 4 (≈ 10.2 µM) | 4 (≈ 10.2 µM) | 16 (≈ 40.9 µM) | 8 (≈ 20.4 µM) | 8 (≈ 20.4 µM) | 16 (≈ 40.9 µM) | 16 (≈ 40.9 µM) | 4 (≈ 10.2 µM) | 16 (≈ 40.9 µM) | 4 (≈ 10.2 µM) | 8 (≈ 20.4 µM) | 4 (≈ 10.2 µM) | 4 (≈ 10.2 µM) | 8 (≈ 20.4 µM) | 2 (≈ 5.11 µM) | 2 (≈ 5.11 µM) | 8 (≈ 20.4 µM) | 4 (≈ 10.2 µM) | 2 (≈ 5.11 µM) | 8 (≈ 20.4 µM) | Minimum inhibition concentration (MIC) (E. faecium C2252): 4 µg/mL (≈ 10.2 µM)
CC(=O)NC[C@H]1CN(c2ccc(N3CCC(=CC(C)OC(C)=O)CC3)c(F)c2)C(=O)O1 (stereo partly drawn) [Compound 23, N-[[(5S)-3-[3-fluoro-4-(4-(2-acetoxypropylidene)-piperidinyl)phenyl]-2-oxo-5-oxazolidinyl]methyl]acetamide] | 4 (≈ 9.23 µM) | 4 (≈ 9.23 µM) | 16 (≈ 36.9 µM) | 16 (≈ 36.9 µM) | 16 (≈ 36.9 µM) | 8 (≈ 18.5 µM) | 16 (≈ 36.9 µM) | 8 (≈ 18.5 µM) | 16 (≈ 36.9 µM) | 8 (≈ 18.5 µM) | 8 (≈ 18.5 µM) | 8 (≈ 18.5 µM) | 8 (≈ 18.5 µM) | 8 (≈ 18.5 µM) | 2 (≈ 4.61 µM) | 0.5 (≈ 1.15 µM) | 16 (≈ 36.9 µM) | 8 (≈ 18.5 µM) | 2 (≈ 4.61 µM) | 8 (≈ 18.5 µM) | Minimum inhibition concentration (MIC) (E. faecium C2252): 8 µg/mL (≈ 18.5 µM)
CC(=O)NC[C@H]1CN(c2ccc(N3CCC(=CC(C)OC(=O)CCl)CC3)c(F)c2)C(=O)O1 (stereo partly drawn) [Compound 24, N-[[(5S)-3-[3-fluoro-4-(4-(2-(chloroacetoxy)propylidene)-piperidinyl)-phenyl]-2-oxo-5-oxazolidinyl]methyl]acetamide] | 4 (≈ 8.55 µM) | 4 (≈ 8.55 µM) | 8 (≈ 17.1 µM) | 16 (≈ 34.2 µM) | 16 (≈ 34.2 µM) | 16 (≈ 34.2 µM) | 16 (≈ 34.2 µM) | 8 (≈ 17.1 µM) | 16 (≈ 34.2 µM) | 8 (≈ 17.1 µM) | 8 (≈ 17.1 µM) | 8 (≈ 17.1 µM) | 16 (≈ 34.2 µM) | 16 (≈ 34.2 µM) | 2 (≈ 4.27 µM) | 2 (≈ 4.27 µM) | 16 (≈ 34.2 µM) | 8 (≈ 17.1 µM) | 2 (≈ 4.27 µM) | 8 (≈ 17.1 µM) | Minimum inhibition concentration (MIC) (E. faecium C2252): 16 µg/mL (≈ 34.2 µM)
